Patent US10723813B2, “PDGF-B /PDGF-BB binding variants of heparan sulfates” (Agency for Science, Technology and Research, priority 2015, dated 2020)
Entries after “also recorded” stand apart in the source; their conditions may differ.

How the values were obtained:
Assay type in all cases: cell-based
[1] = test system: human dermal fibroblasts (HDFs); assay: In vitro proliferation of HDFs (Example 15), with or without PDGFR/FGFR1 inhibitors; settings: FIG. 30
Experimental: FIG. 29. Charts showing proliferative effect of PDGF-BB and HS6 on human dermal fibroblasts: (A) PDGF-BB (1, 2.5, 5, 10, 25 ng/ml), (B) HS6 (0.25, 0.5, 1, 2.5, 5, 10, 25 μg HS6), (C) 2.5 ng PDGF-BB+HS6 (0, 0.25, 0.5, 1, 2.5, 5, 10, 25 μg).
FIG. 30. Charts showing effect of PDGFR and FGFR inhibition. (A) Effect of PDGFR inhibitor JNJ-10198409; (B) Effect of FGFR1 inhibitor SU5402.

[2] = test system: human dermal fibroblast (HDF); assay: HDF migration scratch assay (IncuCyte)
Experimental: Migration Protocol: • 1. Seed 10,000 HDF per well in maintenance media, into a 96 well ImageLock plate. • 2. After 24 hrs, change media to 1% α-MEM • 3. Once cells are confluent, scratch the surface using the wound maker and wash once with PBS. • 4. Add 100 μl of treatment media into each well and place plate into IncuCyte and run for 40 hours. • 5. Program is set up to take photo every 2 hours. Results:
The migration protocol from Example 11 was followed using a range of HS6+ doses (20 μg/mL, 40 μg/mL, 60 μg/mL) with 5 ng/ml PDGF-BB.

[3] = test system: human dermal fibroblast (HDF); assay: HDF proliferation (Guava Viacount, 72 hrs)
Experimental: Proliferation Protocol: • 1. Thaw human dermal fibroblast (HDF, Cascade Biologics) into a T75 in maintenance medium at 5×10^3 cells/cm^2 (α-MEM, 10% FCS, P/S) at 37° C. 5% CO^2 humidified incubator. • 2. At 70-80% confluence, wash cells in PBS twice, add 1 ml of 0.125% trypsin and incubate for 3 mins. Tap the dish and stop the trypsin by adding 5 ml of medium. Centrifuge cells down at 180 g for 7 mins. • 3. Count total number of cells. • 4. Seed cells at 500 μl of 3000 cells/cm^2 cell suspension per well and place the plates into the incubator for 24 hrs. • 5. Change media to α-MEM, 1% FCS, P/S media for 24 hrs. • 6. Treat cells with PDGF-BB and HS fractions. • 7. After 72 hrs, wash cells with PBS and add 100 ul of trypsin, incubate for 3 mins. • 8. Add 100 ul of Guava Viacount dye mastermix into each well of trypsinize cells. • 9. Transfer total volume of 200 ul of cells per well into a 96 well Guava plate. Results:
The proliferation protocol described in Example 9 was used.

[4] = test system: human N-TERT/1 keratinocytes; assay: Scratch wound assay on keratinocytes; settings: confluent N-TERT/1, IncuCyte; increasing amounts (FIG. 31)

| Compound | Stimulation of proliferation in the presence of inhibitor [1] | PDGF-BB concentration up to which rate of wound closure increases [2] | Rate of closure at more than 10 ng/mL PDGF-BB [2] | HDF migration, PDGF-BB dosing ([2]; PDGF-BB alone) | HDF proliferation, dosing ([3]; 72 hrs, increasing concentration of the substance) | Optimal concentration for proliferation ([3]; HDF, 72 hrs) [ng/mL] | Viability of HDF ([3]; higher concentration of PDGF-BB) | Closure of the scratch wound, keratinocytes [4] |
| --- | --- | --- | --- | --- | --- | --- | --- | --- |
| COc1cc2c(cc1OC)-c1[nH]nc(Nc3cccc(F)c3)c1C2 [JNJ-10198409] | very strongly inhibited | – | – | – | – | – | – | – |
| PDGF-BB: homodimer of platelet-derived growth factor B; recombinant (R&D) | – | up to 10 ng/mL | does not speed up the rate of closure | induces HDF migration | dose dependently increase HDF proliferation; also recorded: dose dependent increase in proliferation | 10 | decreased viability | able to improve the closure |
| Cc1c[nH]c(/C=C2\C(=O)Nc3ccccc32)c1CCC(=O)O [SU5402] | also inhibited—but not as strongly | – | – | – | – | – | – | – |
